# Read-outs that look alike come from different tables or passages of the source.
# How the values were obtained:
# β-Amyloid1-42 = target: T1, β-Amyloid1-42 (Homo sapiens, UniProt P05067); assay: Inhibition of Aβ 1-42 spontaneous aggregation (HPLC assay); assay type: biochemical; settings: for potency in inhibiting the aggregation of Aβ1-42 as compared to compound (3): comparison with known compound (3); for IC50: concentration able to inhibit the aggregation of the fibrils by 50%, peptide 20 μM, pH 7.4, 18 h at 37° C., read-out: β-Amyloid1-42 Anti-aggregation (HPLC assay) IC50; for anti-aggregating properties against Aβ1-42: in words
# T1 construct: Synthetic Aβ 1-42 (U.S. Peptide, Rancho Cucamonga, USA); purchased U.S. Peptide, Rancho Cucamonga, USA; host or cells: chemical synthesis
# T1 sequence (P05067 672-713 limits assumed): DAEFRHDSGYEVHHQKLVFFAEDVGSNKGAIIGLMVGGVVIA
# Description: (§1) In our experimental conditions, the peptide monomer (anti-aggregation protocol) or already aggregated (disaggregation protocol) was incubated at 37° C., alone or in the presence of the test compound, for different time intervals, then centrifuged and both the supernatant and the pellet were analyzed by HPLC or Thioflavine T binding assay.
# Inhibition of Aβ 1-42 Spontaneous Aggregation
# Preparation of the Aβ 1-42 peptide
# Synthetic Aβ 1-42 (U.S. Peptide, Rancho Cucamonga, USA) was dissolved to 220 μM in H2O/CH3CN 1:1. Aliquots of 10 μg were lyophilized under vacuum with an Eppendorf concentrator for 18 h and stored at −80° C.
# Aβ 1-42 spontaneous aggregation
# 10 μg of lyophilized peptide sample was dissolved at 20 μM in 20 mM potassium phosphate buffer, pH 7.4, containing 150 mM NaCl. The sample was incubated for 18 h at 37° C. After centrifugation at 13000 xg for 5 min, the pellet was dissolved in formic acid and both the pellet and the supernatant were analysed by HPLC. The extent of aggregation was determined as the percentage of peptide content in the pellet compared with the total amount.
# α-synuclein = target: T2, α-synuclein (Homo sapiens, UniProt P37840); assay: Inhibition of NAC (α-synuclein) spontaneous aggregation (HPLC assay); assay type: biochemical; settings: for potency in inhibiting the aggregation of α-synuclein as compared to compound (3): comparison with known compound (3); for anti-aggregating properties against α-synuclein: in words
# T2 construct: The synthetic peptide NAC (Bachem) was dissolved at 1 mg/ml; purchased Bachem; host or cells: chemical synthesis
# Description: as §1
# Inhibition of Non Aβ Component of Alzheimer's Disease Amyloid (NAC, α-synuclein) Spontaneous Aggregation
# Preparation of the NAC peptide
# The synthetic peptide NAC (Bachem) was dissolved at 1 mg/ml in H2O/CH3CN 1:1 plus 5% TFA. Aliquots of 40 μg were lyophilized under vacuum for 18 h and stored at −80° C.
# NAC spontaneous aggregation
# 40 μg of lyophilized peptide sample was dissolved at 500 μM in 20 mM potassium phosphate buffer, pH 7.4, containing 150 mM NaCl. The sample was incubated for 24 h at 37° C. After centrifugation at 13000 xg for 5 min, the pellet was dissolved in formic acid and both pellet and supernatant were analyzed by HPLC. The extent of aggregation was determined as the percentage of peptide content in the pellet compared to the total amount used.
Compound,potency in inhibiting the aggregation of Aβ1-42 as compared to compound (3) (β-Amyloid1-42),IC50 (β-Amyloid1-42),anti-aggregating properties against Aβ1-42 (β-Amyloid1-42),IC50 (α-synuclein),potency in inhibiting the aggregation of α-synuclein as compared to compound (3) (α-synuclein),anti-aggregating properties against α-synuclein (α-synuclein),"IC50 (α-synuclein; NAC peptide 500 μM, pH 7.4, 24 h at 37° C., read-out: α-synuclein Anti-aggregation (HPLC assay) IC50)"
"CCCN(OCC)C1CCc2c(ccc(O)c2O)C1 (centres unmarked) [Compound 2, N-(5,6-dihydroxy-1,2,3,4-tetrahydro-naphthalene-2-yl)-N-propyl-O-ethyl-hydroxylamine]",significantly more potent,6 µM,significant anti-aggregating properties,35 µM,significantly more potent,significant anti-aggregating properties,–
"CONC(C)Cc1ccc(O)c(O)c1 (centres unmarked) [Compound 1, N-(1-methyl-2-(3,4-dihydroxy-phenyl)-ethyl)-O-methyl-hydroxylamine]",more potent,15 µM,significant anti-aggregating properties,222 µM,more potent,significant anti-aggregating properties,–
"CCCN(CCC)[C@@H]1Cc2c(O)ccc(O)c2C[C@H]1C (relative stereo) [Compound 3, trans-N-(5,8-hydroxy-3-methyl-1,2,3,4-tetrahydro-naphtalene-2yl)-N,N-dipropyl-amine, reference compound]",–,60 µM,–,–,–,–,878 µM
